In brackets after ≈: the same amount, converted by molar mass. Activity calls are given as the source filed them. The calls are words filed in the database; no cut-off is given here.
Columns and labels:
Streptococcus pneumoniae [1] = assay: Antibacterial activity against penicillin-intermediate Streptococcus pneumoniae ATCC 49619 assessed as bacterial growth inhibition measured after 20 hrs by broth dilution method; format: functional
Staphylococcus aureus [2] = assay: Antibacterial activity against methicillin-resistant Staphylococcus aureus ATCC 33591 infected in female C57 mouse systemic infection model assessed as survival rate at 40 mg/kg, po measured upto 7 days relative to control; format: functional; conditions: ATCC 33591, 168 h, time <= 7 day
Staphylococcus aureus [3] = assay: Antibiofilm activity in methicillin-resistant Staphylococcus aureus ATCC 33591 assessed as disruption of preformed biofilm at 1 time MIC measured after 24 hrs by crystal violet staining based assay relative to control; format: functional
Staphylococcus aureus [4] = assay: (§1) Antibacterial activity against methicillin-resistant Staphylococcus aureus ATCC 33591 infected in female C57 mouse systemic infection model assessed as reduction in bacterial load in lung at 40 mg/kg, iv administered twice daily and measured after 7 days; format: functional; conditions: time 7 day
Staphylococcus aureus [5] = assay: Antibacterial activity against methicillin-resistant Staphylococcus aureus ATCC 33591 infected in female C57 mouse systemic infection model assessed as reduction in bacterial load in liver at 40 mg/kg, iv administered twice daily and measured after 7 days; format: functional; conditions: time 7 day
[6] = test system: Staphylococcus epidermidis; assay: Antibacterial activity against methicillin-resistant Staphylococcus epidermidis clinical isolate 202409454 assessed as bacterial growth inhibition measured after 20 hrs by broth dilution method; format: functional
Staphylococcus aureus [7] = assay: Antibacterial activity against methicillin-resistant Staphylococcus aureus clinical isolate 202405157 assessed as bacterial growth inhibition measured after 20 hrs by broth dilution method; format: functional
Staphylococcus aureus [8] = assay: as §1, with “local blood cell accumulation” for “bacterial load”, “spleen” for “lung”, “days by H and E staining based analysis” for “days”; format: functional, organism-based; conditions: time 7.0 day
Enterococcus faecium [9] = assay: Ratio of MBC to MIC against vancomycin-resistant Enterococcus faecium ATCC 51559; format: functional
Staphylococcus aureus [10] = assay: Ratio of MBC to MIC against methicillin-resistant Staphylococcus aureus clinical isolate 202405157; format: functional
Staphylococcus aureus [11] = assay: Antibacterial activity against methicillin resistant Staphylococcus aureus ATCC 33591 assessed as post antibiotic effect at 4 times MIC by time kill assay; format: functional
Enterococcus faecium [12] = assay: Antibacterial activity against vancomycin-resistant Enterococcus faecium ATCC 700221 assessed as bacterial growth inhibition measured after 20 hrs by broth dilution method; format: functional
Staphylococcus aureus [13] = assay: Antibacterial activity against methicillin-resistant Staphylococcus aureus ATCC 33591 infected in female C57 mouse systemic infection model assessed as survival rate at 5 mg/kg, po measured upto 7 days relative to control; format: functional; conditions: ATCC 33591, 168 h, time <= 7 day
Staphylococcus aureus [14] = assay: as §1, with “inflammatory cell aggregation” for “bacterial load”, “days by H and E staining based analysis” for “days”; format: functional, organism-based; conditions: time 7.0 day
Staphylococcus aureus [15] = assay: Ratio of MBC to MIC against methicillin-resistant Staphylococcus aureus clinical isolate 202311772; format: functional
Staphylococcus aureus [16] = assay: Bactericidal activity against methicillin-resistant Staphylococcus aureus ATCC 33591 at 1 to 8 times MIC by time kill assay; format: functional, organism-based; conditions: time <= 24.0 hrs
[17] = Acute toxicity in po dosed female C57 mouse assessed as lethal dose measured after 48 hrs; format: organism-based; conditions: in vivo
Staphylococcus aureus [18] = assay: (§2) Antibacterial activity against methicillin-resistant Staphylococcus aureus ATCC 33591 infected in female C57 mouse systemic infection model assessed as reduction in vacuolation in heart at 40 mg/kg, iv administered twice daily and measured after 7 days by H and E staining based analysis; format: functional, organism-based; conditions: time 7.0 day
Staphylococcus aureus [19] = assay: Antibiofilm activity in methicillin-resistant Staphylococcus aureus ATCC 33591 measured after 24 hrs by MTT assay; format: functional
Staphylococcus aureus [20] = assay: as §2, with “appearance of loosely arranged cells” for “vacuolation”, “spleen” for “heart”; format: functional, organism-based; conditions: time 7.0 day
Enterococcus faecium [21] = assay: Antibacterial activity against vancomycin-resistant Enterococcus faecium clinical isolate 202308456 assessed as bacterial growth inhibition measured after 20 hrs by broth dilution method; format: functional
Staphylococcus aureus [22] = assay: Antibacterial activity against methicillin-resistant Staphylococcus aureus ATCC 33591 infected in female C57 mouse systemic infection model assessed as reduction in bacterial load in heart at 40 mg/kg, iv administered twice daily and measured after 7 days; format: functional; conditions: time 7 day
Staphylococcus aureus [23] = assay: Bactericidal activity against methicillin-resistant Staphylococcus aureus ATCC 33591 at 2 times MIC measured after 8 to 12 hrs by time kill assay; format: functional, organism-based; conditions: time 8-12 hrs
Staphylococcus aureus [24] = assay: Induction of morphological changes in methicillin-resistant Staphylococcus aureus ATCC 33591 assessed as appearance of rough cell surface at 1 time MIC measured after 4 hrs by SEM analysis; format: functional, organism-based
Enterococcus faecium [25] = assay: Ratio of MBC to MIC against vancomycin-resistant Enterococcus faecium clinical isolate 202308456; format: functional
Enterococcus faecium [26] = assay: Antibacterial activity against vancomycin-resistant Enterococcus faecium ATCC 51559 assessed as bacterial growth inhibition measured after 20 hrs by broth dilution method; format: functional
Staphylococcus aureus [27] = assay: Antibiofilm activity in methicillin-resistant Staphylococcus aureus ATCC 33591 assessed as inhibition of biofilm formation at 1/16 time MIC measured after 48 hrs by crystal violet staining based analysis relative to control; format: functional; design: scale not given: the % may be the effect or the level left
Staphylococcus aureus [28] = assay: as §2, with “distorted myocardial fibers” for “vacuolation”; format: functional, organism-based; conditions: time 7.0 day
Staphylococcus aureus [29] = assay: Induction of morphological changes in methicillin-resistant Staphylococcus aureus ATCC 33591 assessed as appearance of shrinked cell surface at 1 time MIC measured after 4 hrs by SEM analysis; format: functional, organism-based
Staphylococcus aureus [30] = assay: Ratio of MBC to MIC against Staphylococcus aureus ATCC 43300; format: functional
Staphylococcus aureus [31] = assay: Antibacterial activity against Staphylococcus aureus ATCC 33591 measured after 9 days; format: functional, organism-based; conditions: time 9.0 day
Staphylococcus aureus [32] = assay: Ratio of MBC to MIC against methicillin-resistant Staphylococcus aureus clinical isolate 202313160; format: functional
[33] = Volume of distribution at steady state in mouse at 5 mg/kg, iv measured after 8 hrs; format: ADME, organism-based; conditions: in vivo, read-out: Vdss
Enterococcus faecium [34] = assay: Ratio of MBC to MIC against vancomycin-resistant Enterococcus faecium ATCC 700221; format: functional
Streptococcus pneumoniae [35] = assay: Ratio of MBC to MIC against penicillin-resistant Streptococcus pneumoniae ATCC 51916; format: functional
[36] = MRT in mouse at 5 mg/kg, iv measured after 8 hrs; format: ADME, organism-based; conditions: in vivo
Staphylococcus aureus [37] = assay: Bactericidal activity against methicillin-resistant Staphylococcus aureus ATCC 33591 at 1 times MIC measured upto 24 hrs by time kill assay; format: functional, organism-based

C=C[C@]1(C)C[C@@H](OC(=O)CSc2cc(=O)oc3cc(OC)ccc23)[C@]2(C)[C@H](C)CC[C@]3(CCC(=O)[C@H]32)[C@@H](C)[C@@H]1O
MIC (Streptococcus pneumoniae [1]): 0.031 µg/mL (≈ 0.0545 µM)
survival at 40 mg/kg (Staphylococcus aureus [2]): 80%
Activity (Staphylococcus aureus [3]): 30.31%
Activity (Staphylococcus aureus [4]): 2.21 log10CFU/g
Activity (Staphylococcus aureus [5]): 2.05 log10CFU/g
MIC [6]: 0.063 µg/mL (≈ 0.111 µM)
MIC (Staphylococcus aureus [7]): 0.063 µg/mL (≈ 0.111 µM)
Activity (Staphylococcus aureus [8]): Active
Ratio (Enterococcus faecium [9]): 1
Ratio (Staphylococcus aureus [10]): 2
PAE (Staphylococcus aureus [11]): 1.9 h
MIC (Enterococcus faecium [12]): 0.031 µg/mL (≈ 0.0545 µM)
survival at 5 mg/kg (Staphylococcus aureus [13]): 40%
Activity (Staphylococcus aureus [14]): Active
Ratio (Staphylococcus aureus [15]): 1
Activity (Staphylococcus aureus [16]): Time-dependent-effect
LD50 at 48 h [17]: 2000 mg/kg
Activity (Staphylococcus aureus [18]): Active
MBEC (Staphylococcus aureus [19]): 8 µg/mL
Activity (Staphylococcus aureus [20]): Active
MIC (Enterococcus faecium [21]): 0.031 µg/mL (≈ 0.0545 µM)
Activity (Staphylococcus aureus [22]): 3.33 log10CFU/g
Activity (Staphylococcus aureus [23]): Active
Activity (Staphylococcus aureus [24]): Active
Ratio (Enterococcus faecium [25]): 2
MIC (Enterococcus faecium [26]): 0.031 µg/mL (≈ 0.0545 µM)
Activity (Staphylococcus aureus [27]): 50.42%
Activity (Staphylococcus aureus [28]): Active
Activity (Staphylococcus aureus [29]): Active
Ratio (Staphylococcus aureus [30]): >4
Activity (Staphylococcus aureus [31]): inactive
Ratio (Staphylococcus aureus [32]): 2
Vd [33]: 1.76 L/kg
Ratio (Enterococcus faecium [34]): 1
Ratio (Streptococcus pneumoniae [35]): 2
MRT [36]: 36.6 min
Activity (Staphylococcus aureus [37]): Active
